This passage reports IC50 and inhibition results from patent US8410094B2, “Amide compounds, their pharmaceutical compositions, their preparation method and their uses” (Shanghai Institute of Materia Medica, Chinese Academy of …, priority 2008, dated 2013).

For one experiment, the target named is T1, CCR5 (Homo sapiens, UniProt P51681).
T1 construct: expressed in transfected cells
T1 sequence (P51681 whole entry): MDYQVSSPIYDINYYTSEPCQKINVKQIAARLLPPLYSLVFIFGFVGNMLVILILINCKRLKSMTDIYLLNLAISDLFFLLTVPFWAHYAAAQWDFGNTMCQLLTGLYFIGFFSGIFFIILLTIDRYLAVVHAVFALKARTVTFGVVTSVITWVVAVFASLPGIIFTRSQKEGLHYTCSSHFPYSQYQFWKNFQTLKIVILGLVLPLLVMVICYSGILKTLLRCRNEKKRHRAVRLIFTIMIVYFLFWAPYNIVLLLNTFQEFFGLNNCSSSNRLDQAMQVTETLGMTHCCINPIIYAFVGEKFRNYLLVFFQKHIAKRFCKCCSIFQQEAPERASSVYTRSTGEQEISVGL
Description: Inhibition of CCR5: [35S]GTPγS binding assays (filtration, SPA-WGA) and calcium influx assay, 10 nM RANTES, CHO-CCR5. To be noted: inhibition of GTPγS binding induced by 10 nM RANTES, CHO-CCR5. In kind it is biochemical. On the procedure: CCR5 belongs to G-Protein-Coupled Receptor (GPCR) family. The developing technology of GPCR-based drugs have been well-developed, among them, the experimental techniques such as ligand-receptor binding assay, GTPγS binding assay and Ca^2+ flux assay have been widely used in drug-screening related to chemokine receptors. The inhibitory activities of the compounds according to the present invention against CCR5 are measured by three methods, i.e., [^35S]GTPγS filter binding assay, SPA-WGA-based [^35S]GTPγS binding assay and calcium influx assay. At the same time, the antiviral activities in cell of the compounds according to the present invention are evaluated by using two kinds HIV-1 subtypes: H4DA5 cell model and PBMC system virus replication model.
A. [^35S]GTPγS Binding Assay
After binding with an agonist, CCR5 experiences a conformation change such that CCR5 interacts with G protein so as to active the G protein. G protein is a tripolymer composed of α-subunit and βγ-subunit. Since the ability of α-subunit binding to GTP depends on the interaction of CCR5 with the agonist, the ability of an agonist for activating CCR5 can be reflected by determining the amount of GTP binding to α-subunit. In a GTPγS binding assay, a ^35S-labeled GTP analogue GTPγS, which can bind with an activated α-subunit without being hydrolyzed, is used to replace GTP in order for eliminating the defect that the amount of GTP binding to G protein can not exactly reflect the activation of CCR5 due to the hydrolysis of GTO by GTPase and for convenience of detection. So, α-subunit binds with GDP when CCR5 is not activated, and after the activation of CCR5, α-subunit binds with GTPγS such that GTPγS irreversible binds to α-subunit. Therefore, the amount of [^35S]-GTPγS binding to α-subunit could reflect the level of CCR5 activated by an agonist. The ability of the agonist for activating CCR5 will decrease when an antagonist is added.
Such experiment has been referred to as GTPγS filtration assay in which [^35S]-GTPγS bound with the free G protein could be separated by membrane filtration.
Alternatively, SPA (Scintillation Proximity Assay) technique can be used to detect the [^35S]-GTPγS bound to G protein, which is called SPA-WGA-based [35S]GTPγS binding assay. The principle of SPA technique is as follows. Sub-atomic particles released during the decay of radioactive atoms, for example β-ray (electron), can excite microspheres at a sufficiently close distance to emit light so as to be detected by a Scintillation Counter. In an aqueous solution, most of the energy of these rays is absorbed by the solvent, and the traveling distance of these rays is limited.
The activation of G protein by CCR5 is determined by the following experiments.
CHO (Chinese hamster ovary cell) permanent cell line expressing CCR5 (CHO-CCR5) (a cell line constructed by Shanghai Targetdrug Ltd.) was lysed with a lysis buffer (5 mM Tris-HCl, pH 7.5, 5 mM EDTA and 5 mM EGTA) and then centrifugated at 15,000×g for 10 min to obtain cell membrane. After the cell membrane was resuspended in a reaction buffer (5 mM Tris-HCl, pH 7.5, 5 mM MgCl2, 1 mM EGTA, 100 mM NaCl), the protein concentration was determined using Bioford Protein Assay Kit manufactured by Bio-Rad Laboratories Inc. Subsequently, GTPγS binding assay was performed in the reaction buffer, wherein the reaction system was 100 μL containing 10 μg membrane protein, 40 μM GDP and 0.5 nM [^35S]-GTPγS (1200 Ci/mmol). After the compound to be tested (the compound was first dissolved in DMSO and then diluted in gradient with the reaction buffer according to the specific situation, wherein the final concentration of DMSO was 1% (v/v) in the whole reaction system) was added and shaken to mix homogeneously, the reaction tube was incubated at 30° C. for 1 hour. After the reaction finished, the tube was placed on ice, and the reaction mixture was diluted with PBS to quench the reaction and filtered under reduced pressure with a GF/C filter membrane. […]
(GTPγS is a poorly hydrolysed GTP analogue; its binding reports G protein activation.)
As a reminder, the IC50 is the concentration needed to halve the response being measured. As for “1-acetyl-N-(3-chloro-4-methylphenyl)-N-(3-(3-exo-(2-(4-(pyrrolidine-1-sulfonyl)phenyl)acetamido)-8-azabicyclo[3.2.1]oct-8-yl)propyl)-4-piperidinylcarboxamide [Compound 7i]”, the IC50 came to 2.97 nM.

As for `CC(=O)N1CCC(C(=O)N(CCCN2[C@@H]3CC[C@H]2C[C@H](NC(=O)Cc2ccc(F)cc2)C3)c2ccc(C)c(Cl)c2)CC1` [Compound 7b, 1-acetyl-N-(3-chloro-4-methylphenyl)-N-(3-(3-exo-(2-(4-fluorphenyl)acetamido)-8-azabicyclo[3.2.1]oct-8-yl)propyl)-4-piperidinylcarboxamide], the IC50 is 31.1 nM.

Turning to `CC(=O)N1CCC(C(=O)N(CCCN2[C@@H]3CC[C@H]2C[C@H](NC(=O)Cc2ccc(Cl)cc2)C3)c2ccc(C)c(Cl)c2)CC1` [Compound 7c, 1-acetyl-N-(3-chloro-4-methylphenyl)-N-(3-(3-exo-(2-(4-chlorphenyl)acetamido)-8-azabicyclo[3.2.1]oct-8-yl)propyl)-4-piperidinylcarboxamide], the IC50 came to 15.1 nM.

As to `CC(=O)N1CCC(C(=O)N(CCCN2[C@@H]3CC[C@H]2C[C@H](NC(=O)Cc2ccc(C(F)(F)F)cc2)C3)c2ccc(C)c(Cl)c2)CC1` [Compound 7d, 1-acetyl-N-(3-chloro-4-methylphenyl)-N-(3-(3-exo-(2-(4-(trifluoromethyl)phenyl)acetamido)-8-azabicyclo[3.2.1]oct-8-yl)propyl)-4-piperidinylcarboxamide], the IC50 was 49.4 nM.

In the case of `CC(=O)N1CCC(C(=O)N(CCCN2C3CCC2CC(NC(=O)CC24CC5CC(CC(C5)C2)C4)C3)c2ccc(C)c(Cl)c2)CC1` (stereo not drawn) [Compound 7e, 1-acetyl-N-(3-chloro-4-methylphenyl)-N-(3-(3-exo-(2-(1-adamantyl)acetamido)-8-azabicyclo[3.2.1]oct-8-yl)propyl)-4-piperidinylcarboxamide], the IC50 stood at 209 nM.

`CC(=O)N1CCC(C(=O)N(CCCN2[C@@H]3CC[C@H]2C[C@H](NC(=O)Cc2ccc([N+](=O)[O-])cc2)C3)c2ccc(C)c(Cl)c2)CC1` [Compound 7f, 1-acetyl-N-(3-chloro-4-methylphenyl)-N-(3-(3-exo-(2-(4-nitrophenyl)acetamido)-8-azabicyclo[3.2.1]oct-8-yl)propyl)-4-piperidinylcarboxamide]: the IC50 amounted to 20 nM.

Take `CC(=O)N1CCC(C(=O)N(CCCN2[C@@H]3CC[C@H]2C[C@H](NC(=O)Cc2ccc(O)cc2)C3)c2ccc(C)c(Cl)c2)CC1` [Compound 7g, 1-acetyl-N-(3-chloro-4-methylphenyl)-N-(3-(3-exo-(2-(4-hydroxyphenyl)acetamido)-8-azabicyclo[3.2.1]oct-8-yl)propyl)-4-piperidinylcarboxamide]: the IC50 turned out to be 48.2 nM.

For `CC(=O)N1CCC(C(=O)N(CCCN2[C@@H]3CC[C@H]2C[C@H](NC(=O)Cc2ccc(Cl)c(Cl)c2)C3)c2ccc(C)c(Cl)c2)CC1` [Compound 7h, 1-acetyl-N-(3-chloro-4-methylphenyl)-N-(3-(3-exo-(2-(3,4-dichlorophenyl)acetamido)-8-azabicyclo[3.2.1]oct-8-yl)propyl)-4-piperidinylcarboxamide], the IC50 turned out to be 4.89 nM.

Regarding `CC(=O)N1CCC(C(=O)N(CCCN2[C@@H]3CC[C@H]2C[C@H](NC(=O)Cc2ccc(S(=O)(=O)N(C)C)cc2)C3)c2ccc(C)c(Cl)c2)CC1` [Compound 7j, 1-acetyl-N-(3-chloro-4-methylphenyl)-N-(3-(3-exo-(2-(4-(N,N-dimethylsulphonyl)phenyl)acetamido)-8-azadicyclo[3.2.1]oct-8-yl)propyl)-4-piperidinylcarboxamide], the IC50 stood at 3.08 nM.

Turning to `CC(=O)N1CCC(C(=O)N(CCCN2[C@@H]3CC[C@H]2C[C@H](NC(=O)Cc2ccc(S(C)(=O)=O)cc2)C3)c2ccc(C)c(Cl)c2)CC1` [Compound 7k, 1-acetyl-N-(3-chloro-4-methylphenyl)-N-(3-(3-exo-(2-(4-(methylsulphonyl)phenyl)acetamido)-8-azabicyclo[3.2.1]oct-8-yl)propyl)-4-piperidinylcarboxamide], the IC50 worked out at 11.6 nM.

Take `CC(=O)N1CCC(C(=O)N(CCCN2[C@@H]3CC[C@H]2C[C@H](NC(=O)Cc2ccc(S(=O)(=O)N4CCOCC4)cc2)C3)c2ccc(C)c(Cl)c2)CC1` [Compound 7l, 1-acetyl-N-(3-chloro-4-methylphenyl)-N-(3-(3-exo-(2-(4-(morpholinosulfonyl)phenyl)acetamido)-8-azabicyclo[3.2.1]oct-8-yl)propyl)-4-piperidinylcarboxamide]: the IC50 turned out to be 3.46 nM.

On to `CC(=O)N1CCC(C(=O)N(CCCN2[C@@H]3CC[C@H]2C[C@H](NC(=O)Cc2ccc(S(=O)(=O)NC(C)(C)C)cc2)C3)c2ccc(C)c(Cl)c2)CC1` [Compound 7m, 1-acetyl-N-(3-(3-exo-(2-(4-(N-tert-butylsulphonyl)phenyl)acetamido)-8-azabicyclo[3.2.1]oct-8-yl)propyl)-N-(3-chloro-4-methylphenyl)-4-piperidinylcarboxamide], for which the IC50 came to 7.54 nM.

In the case of `CC(=O)N1CCC(C(=O)N(CCCN2[C@@H]3CC[C@H]2C[C@H](NC(=O)Cc2cccc4ccccc24)C3)c2ccc(C)c(Cl)c2)CC1` [Compound 7n, 1-acetyl-N-(3-chloro-4-methylphenyl)-N-(3-(3-exo-(2-(1-naphthyl)acetamido)-8-azabicyclo[3.2.1]oct-8-yl)propyl)-4-piperidinylcarboxamide], the IC50 stood at 4.75 nM.

Regarding `CC(=O)N1CCC(C(=O)N(CCCN2[C@@H]3CC[C@H]2C[C@H](NC(=O)Cc2ccc4ccccc4c2)C3)c2ccc(C)c(Cl)c2)CC1` [Compound 7o, 1-acetyl-N-(3-chloro-4-methylphenyl)-N-(3-(3-exo-(2-(2-naphthyl)acetamido)-8-azabicyclo[3.2.1]-oct-8-yl)propyl)-4-piperidinylcarboxamide], the IC50 came to 697 nM.

For the compound `CC(=O)N1CCC(C(=O)N(CCCN2C3CCC2CC(NC(=O)C(O)c2ccccc2)C3)c2ccc(C)c(Cl)c2)CC1` (stereo not drawn) [Compound 7p, 1-acetyl-N-(3-chloro-4-methylphenyl)-N-(3-(3-exo-(2-hydroxyl-2-phenylacetamido)-8-azabicyclo[3.2.1]oct-8-yl)propyl)-4-piperidinylcarboxamide], the IC50 was 51.5 nM.

On to `CC(=O)N1CCC(C(=O)N(CCCN2[C@@H]3CC[C@H]2C[C@H](NC(=O)Cc2c[nH]c4ccccc24)C3)c2ccc(C)c(Cl)c2)CC1` [Compound 7q, N-(3-(3-exo-(2-(3-indolyl)acetamido)-8-azabicyclo[3.2.1]oct-8-yl)propyl)-1-acetyl-N-(3-chloro-4-methylphenyl)-4-piperidinylcarboxamide], for which the IC50 was 82 nM.

For `COc1cc(CC(=O)N[C@@H]2C[C@H]3CC[C@@H](C2)N3CCCN(C(=O)C2CCN(C(C)=O)CC2)c2ccc(C)c(Cl)c2)cc(OC)c1OC` [Compound 7r, 1-acetyl-N-(3-chloro-4-methylphenyl)-N-(3-(3-exo-(2-(3,4,5-trimethoxylphenyl)acetamido)-8-azabicyclo[3.2.1]oct-8-yl)propyl)-4-piperidinylcarboxamide], the 50% inhibitory concentration (IC50) is 20.3 nM.

The experiment is the same for the next values; noted with them: read-out: inhibition against CCR5 @30 nM.
What is called inhibition is the drop in the measured response relative to a control, in per cent. With `CC(=O)N1CCC(C(=O)N(CCCN2C3CCC2CC(NC(=O)Cc2ccccc2)C3)c2ccc(C)c(Cl)c2)CC1` (stereo not drawn) [Compound 7a, 1-acetyl-N-(3-chloro-4-methylphenyl)-N-(3-(3-exo-(2-phenylacetamido)-8-azabicyclo[3.2.1]oct-8-yl)propyl)-4-piperidinylcarboxamide], the inhibition at 0.03 µM was 26.2%.

Still in this experiment, the particulars now being: read-out: inhibition against CCR5 @300 nM.
As to `CC(=O)N1CCC(C(=O)N(CCCN2C3CCC2CC(NC(=O)Cc2ccccc2)C3)c2ccc(C)c(Cl)c2)CC1` (stereo not drawn) [Compound 7a, 1-acetyl-N-(3-chloro-4-methylphenyl)-N-(3-(3-exo-(2-phenylacetamido)-8-azabicyclo[3.2.1]oct-8-yl)propyl)-4-piperidinylcarboxamide], the inhibition at 0.3 µM was 64.6%.
